This is an account of results in US8192986B2, “Compositions and methods for treatment of protein misfolding diseases” (Whitehead Institute for Biomedical Research, priority 2004, dated 2012).

The test system of the experiment is yeast cells expressing low levels of huntingtin. Kind of experiment: Huntingtin toxicity in yeast grown in the presence of an ER stress inducer (FIG. 6B). It counts as cell-based. The conditions noted are these: yeast cells grown in the presence of tunicamycin, low levels of huntingtin expressed. The text has this: The unfolded protein response in yeast is depicted in FIG. 6A. […] Conversely, expression of constitutively active IRE1 or HAC (proteins that induce the UPR) ameliorated the toxic effects of high level expression of 103 Q huntingtin in yeast (FIGS. 6D and 6E).

With tunicamycin, the “huntingtin toxicity in yeast cells” value was “enhanced toxicity”.
